Experimental findings from patent US20230279379A1, “METHODS AND MICROFLUIDIC DEVICE FOR PRODUCING EXTRACELLULAR VESICLES” (THE BOARD OF TRUSTEES OF THE UNIVERSITY OF ILLINOIS, priority 2022, published 2023) are described below.

Holding throughout (format): cell-based
In assay [1] the test system is CD63-K2S^+ MVBs in D1 mouse MSCs. The assay can be described thus: Intracellular CD63-K2S+ MVB transport by TIRF microscopy. As to conditions: Arp2/3 inhibition by CK869. The source says:
Lentiviral-Mediated Expression of CD63 Fused with Fluorescent Proteins. Katushka2S (far-red fluorescent protein) was fused with CD63 in a lentiviral expression vector (CD63-K2S vector) and expressed in D1 MSCs according to known methods. The sequence for pHLuorin2 (pH-sensitive green fluorescent protein) was synthesized by GenScript and exchanged with the Katushka2S in the same vector using restriction enzyme cloning. The resulting CD63-pHLuorin2 lentiviral vector was transduced in D1 MSCs in a similar method as the CD63-K2S vector. Cells were selected by treatment with 5 μg/mL puromycin over 3 days and confirmed to express fluorescent signal versus non-transduced cells.
Total Internal Reflection Fluorescence (TIRF) Imaging of Cells on Substrates. To covalently bond crosslinked PEG-DA hydrogel to a thin glass surface, acrylate groups were attached to glass coverslips by silanization. […]
CD63-Katushka2S Data Analysis. […] Intracellular bodies were determined using Gaussian smoothing and local background intensity thresholding (with automatically determined thresholds) to detect surfaces followed by tracking their position (x, y) over time (t). […] Multivescular body (MVB) area was computed for each time t and reported as the mean area across total track time T. Tracks were then analyzed via a custom MATLAB (R2017b, MathWorks) program. Track MSD was calculated as […]

The subject of another assay is F-actin in MSCs. The assay can be described thus: Confocal imaging of F-actin in cells on hydrogels. The settings on record: CK869 for 2 hours; cell adhesion for 4 hours. The protocol:
Sample Preparation for Imaging of F-Actin in Cells on Hydrogels. To prepare samples for F-actin imaging, glass bottom dishes (No 0., 35 mm; MatTek) were silanized, and a thin layer of PEG-DA hydrogel with varied elasticity was formed as described above. After cell seeding on hydrogels and culturing cells in the presence of DMSO or CK869, cells were permeabilized with 0.0015% saponin (Sigma) in a cytoskeleton buffer (10 mM MES, pH 6.0, 150 mM NaCl, 5 mM EGTA, 5 mM glucose, and 5 mM MgCl2) for 4 minutes at room temperature. The samples were then washed with the cytoskeleton buffer 3 times and fixed with 4% paraformaldehyde in the cytoskeleton buffer for 20 minutes at room temperature. After washing 3 times with the cytoskeleton buffer, the samples were reduced in 0.1% sodium borohydride in PBS for 20 minutes at room temperature. To label F-actin in cells, the samples were stained with a fluorescent stain sold under the tradename ALEXA FLUOR® 488 phalloidin (1:1000; Cayman) for confocal imaging or ALEXA FLUORO 647 phalloidin (1:10000; Cayman) for super-resolution imaging in PBS with 3% BSA for 40 minutes at room temperature. The samples were washed 3 times with PBS prior to imaging.
Confocal Imaging of F-actin. […] A mean projection image was created from each confocal stack, and average intensity ALEXA FLUOR® 488 phalloidin per cell was analyzed by ImageJ (NIH). […]

Assay [2] has as its system membrane-cytoskeleton attachment in MSCs. The assay can be described thus: Force for membrane tether formation by AFM. As to conditions: CK869 treatment for 2 hours; within 4 hours of cell adhesion. The protocol: Measurement of Force for Membrane Tether Formation by Atomic Force Microscopy (AFM). Membrane tethering force was measured by using 3D-BIO AFM (Asylum Research, Oxford Instruments) with TR400PSA cantilevers (OTR4; spring constant=30 pN/nm). Indentation depth for each measurement was 4 μm with a velocity of 2 μm/s, and the force curve for each measurement was recorded by the AFM software (AR14). For each cell, 25-50 force curves were analyzed. In force mode, the piezotranducer (PZT) was set to drive the cantilever to approach, touch, make an indentation, and retract over a predefined distance in the optical axis perpendicular to the cell surface. The force curve was generated from the recorded vertical-axis movement of the PZT and the deflection of the cantilever with a known dimension and a spring constant. In the force curve representing the retraction of the cantilever from a cell, a sudden release of force occurred at the rupture of a membrane tether was quantified via a custom MATLAB program.

In the next assay the test system is Primary human MSCs. The assay can be described thus: EV secretion per cell from MSCs on hydrogel substrates, nanoparticle tracking analysis. The settings on record: 5 μM CK869, ~4 hour adhesion, EV collection after 24 hours.

On to `COc1ccc(N2C(=O)CSC2c2cccc(Br)c2)c(OC)c1` (stereo not drawn) [CK869], for which the “transport exponent α” value in assay [1] was ~0.5. In assay [1] (soft and stiff substrate), the “MVB transport (tracks, <MSD> vs t, D0.4s)” value is given as “significantly enhanced transport on either substrate”. In the assay on F-actin in MSCs, the “mean intensity of phalloidin-labelled F-actin signal per cell” value is recorded as “decrease the signal intensity on both substrates”. The “force of membrane tether formation” value in assay [2] was “slightly decreased tethering on the soft hydrogel”. Also, in the assay with Primary human MSCs (soft hydrogel), the “EV secretion on the soft hydrogel” value is recorded as “to a lesser but significant extent”. Moreover, in the assay with Primary human MSCs (stiff hydrogel), the “EV secretion on the stiff hydrogel” value is “increased EV secretion on the stiff hydrogel”.
